Read-outs that look alike come from different tables or passages of the source. Strand notation (5' to 3'): a small letter for the sugar, then the base; units joined by * are phosphorothioate-linked, units joined directly phosphodiester-linked; [ ] holds rarer units or linkages, { } end groups; capitals alone tell only the bases. {MOP} = methoxy, phosphonate-4'-oxy on the 2'-O-methyluridine at position 1; m = 2'-O-methyl; f = 2'-fluoro
Legend:
HBV [1] = format: in vivo; details: HDI mice; for circulating HBsAg / hepatic viral RNAs: entecavir 500 ng/kg PO daily for 14 days alone
Method: The RNAi oligonucleotides targeting the S antigen impact both the viral polymerase and HBsAg protein. In this study, the combinational effects of HBV(s)-219P2 as a monotherapy and combinational treatment with entecavir was explored in an HBV-expressing mouse (HDI model) for antiviral activity.
Mice were administered daily oral dosing of 500 ng/kg Entecavir (ETV) for 14 days. A single subcutaneous administration of HBV(s)-219P2 took place. Circulating viral load (HBV DNA) was measured by qPCR (FIG. 25A), plasma HBsAg level was measured by ELISA (FIG. 25B), and liver HBV mRNA and pgRNA levels were measured by qPCR.

[2] = test system: HBV Genotype A S ORF target sites fused to reporter gene; experiment: psiCHECK-2 dual-luciferase reporter mismatch assay in HeLa cells; format: cell-based
Source text: A psiCHECK-2 dual-luciferase reporter system was utilized to evaluate the effects of a mismatch at a selected position in each of HBV-217, HBV-219, HBV-254, HBV-255, and HBV-258. The psiCHECK vector enables monitoring of changes in expression of a target gene fused to a reporter gene, where active RNAi degrades the fusion construct to produce a corresponding decrease in reporter signal. The diagram in FIG. 16 generically depicts the vector utilized in these assays. The parent partial reporter sequence contained 120 base-pair fragments from Genotype A (GenBank: AM282986.1) around target sites of interest in the S ORF. […]
The psiCHECK2 reporter assays with each oligonucleotide were conducted over a three-day period using a 6-point, 5-fold serial dilution starting at 1 nM transfected in HeLa cells. […] The cells were then incubated at 37° C. in a CO2 incubator until the cells were ready to harvest and assay for the target gene. On day 3, 100 μL of Dual-Glo Reagent was added to each well, mixed and incubated for 10 minutes before reading the luminescence. A further 100 μL of Dual-Glo Stop & Glo was added to each well, mixed and incubated for 10 minutes before reading the luminescence. […] The EC50s values determined for each oligonucleotide are shown in Table 15 with additional specifications.

HBV [3] = experiment: HBsAg levels in HDI-mice after subcutaneous oligonucleotide; format: in vivo
Source text: HBsAg levels were monitored in both oligonucleotide treated and untreated control mice for a period spanning 147 days.

Compound	mean decrease in HBV DNA detected in plasma relative to PBS (HBV [1]; entecavir 500 ng/kg PO daily for 14 days) [log]	circulating HBsAg (HBV [1])	hepatic viral RNAs (HBV [1])	circulating HBsAg (HBV [1]; listed as entecavir)	hepatic viral RNAs (HBV [1]; listed as entecavir)	EC50 ([2]; mismatch duplex, single mismatch to reporter plasmid, read-out: MM EC50s) [nM]	EC50 ([2]; parent duplex, 100% homology to reporter plasmid, read-out: Parent EC50s) [nM]	HBsAg levels (HBV [3]; HDI-mice, single subcutaneous dose evaluation)	HBsAg levels (HBV [3]; mice, QW×3, 3 mg/kg subcutaneous, monitored 147 days)
C=C1[C@H](CO)[C@@H](O)C[C@@H]1n1cnc2c(=O)[nH]c(N)nc21 [Entecavir]	~1.6	no efficacy	no efficacy	No significant decrease	No significant decrease				
HBV-254: HBsAg-targeting duplex oligonucleotide, sense SEQ ID NO: 55, antisense SEQ ID NO: 56 (sense GUGGUGGACUUCUCUCAAUAGCAGCCGAAAGGCUGC; antisense {MOP}-mU*fA*fU*mUfGmAfGfAmGfAmAfGmUfCmCfAmCmCfAmC*mG*mG; sense: chemistry not given here; tetraloop form)						0.096	0.037	systematically reduced HBsAg levels in mice with increasing dosage	Diminished HBsAg levels persisted in treated mice throughout the entirety of the study

— patent US20230123601A1, “PHARMACEUTICAL COMBINATION OF ANTIVIRAL AGENTS TARGETING HBV AND/OR AN IMMUNE MODULATOR FOR TREATMENT OF HBV” (priority 2019, published 2023)
